Patent US20220362330A1, “Compositions and Methods for Increasing Epithelial Barrier Function” (The Board of Trustees of the Leland Stanford Junior …, priority 2019, published 2022)
“Also recorded” adds a separate entry of the source.

Legend:
[1] = tested on: genital mucosal permeability; assay: Human tissue permeability assay on biopsy specimens; set-up: species or system women
Method: To confirm the relevance of the mouse model findings, DMPA-mediated changes in mucosal permeability was explored with ectocervical biopsies from women using no hormonal contraceptive and again 1 month after they initiated DMPA.
[…] biopsy specimens obtained from women were placed in transport media, transferred into sterile 96-well plates, and incubated 45 minutes in a 20 μL solution of PBS containing LY and DR (at the same concentrations used in mouse studies). Tissue was likewise fixed and embedded as detailed for mice. Stratified squamous epithelium, lamina propria, and connective tissue were identified using light microscopy (at 100× magnification), while images obtained at 400× magnification were used to quantify penetration of LY into ectocervical tissue.

HSV-1 = assay: Genital HSV-1 GFP infection, virus replication in vaginal epithelium; type: in vivo, mice; settings: 1.5 ug/30 uL ivag 24 h prior to 3×10^3 PFU HSV-1 GFP; tissue 24 h after infection
Method: Estrus-stage or DMPA-treated mice were intravaginally administered vehicle or recombinant mouse Fc-EFNA3 at 1.5 ug/30 uL 24 h prior to genital infection with 3×10^3 PFU HSV-1q GFP (fluorescent virus). Vaginal tissue was recovered 24 h after infection and evaluated for HSV-1 replication in the vaginal epithelium using confocal microscopy. […] To evaluate if treatment with rm-EphrinA3 protects mice from lethal HSV-2 infection, DMPA-treated mice were intravaginally administered Fc- or His-tagged versions of the rm-protein prior to infection. […] Because the microarray data indicated EphrinA1, EphrinA2, EphrinA3, EphrinA4, and EphrinA5 were upstream regulators of Dsg1 and Dsc1 expression in the mouse vagina, we hypothesized that capacity of EphrinA3 to increase cell-cell adhesion molecule expression may be shared by other members of the EphrinA family.

genital mucosa = assay: Entry of activated hPBMCs into vaginal tissue of humanized mice; type: in vivo, hPBMC-engrafted NSG mice; settings: CFSE-labeled activated hPBMCs ivag, 15 h; DMPA vs DMPA and E cream
Method: Because mice treated with DMPA and E were HSV-2 resistant and DMPA facilitated entry of leukocytes into vaginal tissue, it was posited that exogenous E blocks HIV-1 acquisition in a humanized mouse model of cell-associated HIV transmission. Human PBMC (hPBMCs)-engrafted NSG mice treated with DMPA or DMPA and E cream were ivag inoculated with CFSE-labeled activated hPBMCs. 15 h later, entry of these cells into vaginal tissue was examined by confocal microscopy. […] Humanized NSG mice treated as described above were also ivag infected with cell-associated HIV-1 (10^6 hPBMCs infected with HIV-1 Ba-L). 10 days later, serum was collected to quantify HIV-1 load via qRT-PCR.
To evaluate mucosal permeability to activated leukocytes, 10^6 human peripheral blood mononuclear cells (hPBMC)/ml were plated in RPMI-1640 supplemented with 10% FBS, 2 mM L-glutamine, 1 mM sodium pyruvate, non-essential amino acids, 50 μM 2-mercaptoethanol, 100 U/ml penicillin, 100 μg/ml streptomycin and 50 μg/ml gentamycin (Mediatech, Manassas, Va.) (henceforth termed complete medium). Plated cells were stimulated for 48 hours with 5 μg/ml of phytohemagglutinin (PHA) (Sigma-Aldrich, St. Louis Mo.), centrifuged, re-suspended (2×10^6 cells/ml) in complete media supplemented with 10 IU/ml recombinant human IL-2 (rhIL-2) (PeproTech, Rocky Hill, N.J.), and incubated another 5 days. […]

genital mucosal tissue = assay: Entry of CFSE-labeled splenocytes into genital mucosal tissue; type: in vivo; settings: CFSE-labeled splenocytes ivag, 12 hours; vs estrus-stage mice
Method: Estrus-stage or DMPA-treated mice were administered CFSE-labeled splenocytes intravaginally and euthanized 12 hours later. Relative leukocyte infiltration of vaginal mucosal tissue in estrus-stage vs. DMPA-treated mice was evaluated by confocal microscopy.
These findings established progestin mediated increases in mucosal permeability promote both passive entry of low molecular weight molecules and incursion of larger-sized cells that are more reliant on energy-dependent processes.

desmocollin-1 (DSC1) = assay: qRT-PCR of Dsc1 gene expression in vaginal tissue; type: in vivo, mice; settings: progestin-treated mice vs mice in estrus
Method: To define progestin-mediated changes in mucosal permeability, vaginal tissue from mice in estrus, diestrus, or after DMPA or LNG treatment was used to measure expression of the desmosomal cadherins desmoglein-1a (DSG1a) and desmocollin-1 (DSC1).
Human ectocervical and murine vaginal tissues were immediately immersed in 1 mL of RNAlater® (Qiagen), stored for 24 h at 4° C., and stored long-term at −80° C. RNA isolated using the RNeasy Lipid Tissue Kit (Qiagen) using manufacturer's instructions was re-suspended in nuclease-free water and quantified using a NanoDrop spectrophotometer (Thermo Scientific). The following mouse primers were utilized: desmocollin 1 (Mm00496525_ml), desmoglein-1α (Mm00809994_s1), ephrinA3 (Mm01212723_g1) and pyruvate carboxylase (Mm00500992_ml) as housekeeping reference gene (all from Thermo Scientific). These human primers were used: desmoglein-1 (Hs00355084_m1) and glucose-6-phosphate isomerase (Hs00976711_m1) as a housekeeping reference gene. To define relative gene expression, 100 ng of RNA was mixed with TaqMan® RNA-to-Ct™ 1-Step Kit and adequate primer (final volume of 10 μL/well) using manufacturer's instructions (Life Technologies). qRT-PCR was performed using a Quantstudio3 Thermal Cycler, and data analyzed via Quanstudio Software (Applied Biosystems).

`CC(=O)O[C@]1(C(C)=O)CC[C@H]2[C@@H]3C[C@H](C)C4=CC(=O)CC[C@]4(C)[C@H]3CC[C@@]21C` [DMPA] was tested, and the mucosal permeability ([1]; specimens collected after initiating hormonal contraceptive) was “increased mucosal permeability”, the “correlation between serum DMPA levels and genital mucosal permeability” value ([1]; women) was “strong positive correlation” and the “Foci of virus replication observed in vaginal epithelium” value (HSV-1) was “observed”. For the same compound, the “penetration of activated hPBMCs into genital mucosa” value (genital mucosa) was “more readily penetrated the genital mucosa”, the “leukocyte entry into genital tissue” value (genital mucosal tissue) was “facilitates entry of leukocytes into genital mucosal tissue; also recorded: promoted leukocyte entry into genital tissue” and the “DSC1 gene expression in vaginal tissue” value (desmocollin-1 (DSC1)) was “decrease gene expression levels”.
